In patent US8236826B2, “Diarylether derivatives as antitumor agents” (Otsuka Pharmaceutical Co., Ltd., priority 2005, dated 2012):

Columns and labels:
[1] = tested on: human stomach cancer cells (MKN45); test: Anti-proliferative effect on human stomach cancer cells, sulforhodamine B method; assay type: cell-based; settings: MKN-45
Text: (§1) Anti-proliferative effect of test compounds on human hepatic cancer cells (HuH-7), human lung cancer cells (EBC-1), human colorectal cancer cells (HCT116), human prostatic cancer cells (22Rv1), human pancreatic cancer cells (MIA PaCa-2), human stomach cancer cells (MKN45), human breast cancer cells (ZR-75-1) was checked by a sulforhodamine B method in accordance with Skehan P et al. (J. Natl. Cancer Inst. 1990 Jul. 4; 82(13): 1107-12). Explanation will be made taking HuH-7 cells as an example.
(§2) HuH-7 cells were seeded on DMEM medium (Dulbeco's modified Eagle Medium) containing 10% fetal bovine serum of a 96-well microplate and cultured at 37° C. for 24 hours in the presence of 5% carbon dioxide gas (CO2). Thereafter, a test compound was added to the wells and the cells were cultured for a further 5 days. […]
(§3) To each of the wells, a 1% aqueous acetic acid solution containing 0.4% sulforhodamine B was added and the wells were allowed to stand still at room temperature for 20 to 30 minutes. […] Subsequently, OD (optical density) was measured at a measurement wavelength of 492 nm and a reference wavelength of 690 nm to obtain the difference (A) in OD thus measured. Furthermore, the OD of a control well (containing no cells) was measured at a measurement wavelength of 492 nm and a reference wavelength of 690 nm to obtain the difference (B) in OD. […]

[2] = tested on: human chronic myelogenous leukemia cells (KU812); test: Anti-proliferative effect on human chronic myelogenous leukemia cells, MTT assay; assay type: cell-based; settings: 120 h, cultured 5 days with compound
Procedure: (§4) Anti-proliferative effect of test compounds on human chronic myelogenous leukemia cells (KU812) was determined by an MTT assay in accordance with the method described in Singh A K et al. (Cancer Lett. 1996 Oct. 1; 107(1): 109-15). To describe more specifically, KU812 cells were seeded on RPMI 1640 medium containing 10% fetal bovine serum of a 96-well microplate, cultured at 37° C. for 24 hours in the presence of a 5% carbon dioxide gas (CO2). Thereafter, a test compound was added to the wells and the cells were cultured for a further 5 days. After the incubation, 10 μl of 5 mg/mL MTT ([…]) was added to the wells. After the cells were cultured for 4 hours, 100 μl of 0.01N HCl containing 10% SDS (sodium dodecyl sulfate) was added to the wells, which was further cultured overnight. Subsequently, OD was measured at a measurement wavelength of 570 nm and a reference wavelength of 690 nm to obtain the difference (A) in OD. Furthermore, OD of a control well (containing no cells) was measured at a measurement wavelength of 570 nm and a reference wavelength of 690 nm to obtain the difference (B) in OD. The difference (A−B) was regarded as the cell proliferation activity of each of the wells. […]

[3] = tested on: human pancreatic cancer cells (MIA PaCa-2); test: Anti-proliferative effect on human pancreatic cancer cells, sulforhodamine B method; assay type: cell-based; settings: MIA PaCa-2 cells
Text: as §1, §2, §3

[4] = tested on: human multiple myeloma cells (IM-9); test: Anti-proliferative effect on human multiple myeloma cells, MTT assay; assay type: cell-based; settings: IM-9 cells
Procedure: [The source words this procedure for another cell line and reports this cell line under the same test.] as §4

[5] = tested on: human colorectal cancer cells (HCT116); test: Anti-proliferative effect on human colorectal cancer cells, sulforhodamine B method; assay type: cell-based; settings: HCT-116
Text: as §1, §2, §3

[6] = tested on: human acute myelogenous leukemia cells (KG-1); test: Anti-proliferative effect on human acute myelogenous leukemia cells, MTT assay; assay type: cell-based; settings: KG-1 cells
Procedure: [The source words this procedure for another cell line and reports this cell line under the same test.] as §4

[7] = tested on: human renal cancer cells (Caki-2); test: Anti-proliferative effect on human renal cancer cells, sulforhodamine B method; assay type: cell-based; settings: Caki-2 cells
[8] = tested on: human hepatic cancer cells (HuH-7); test: Anti-proliferative effect on human hepatic cancer cells, sulforhodamine B method; assay type: cell-based; settings: 120 h, HuH-7 cells, cultured 5 days with compound
Text: as §1, §2, §3

[9] = tested on: human lung cancer cells (EBC-1); test: Anti-proliferative effect on human lung cancer cells, sulforhodamine B method; assay type: cell-based; settings: EBC-1 cells
Text: as §1, §2, §3

[10] = tested on: human prostatic cancer cells (22Rv1); test: Anti-proliferative effect on human prostatic cancer cells, sulforhodamine B method; assay type: cell-based; settings: 22Rv1 cells
Text: as §1, §2, §3

[11] = tested on: human breast cancer cells (ZR-75-1); test: Anti-proliferative effect on human breast cancer cells, sulforhodamine B method; assay type: cell-based; settings: ZR-75-1 cells
Text: as §1, §2, §3

[12] = tested on: human Burkitt's lymphoma cells (Daudi); test: Cell proliferation suppression activity on human Burkitt's lymphoma cells, MTT assay; assay type: cell-based; settings: applied dose 10 nM
Procedure: [The source words this procedure for another cell line and reports this cell line under the same test.] as §4

[13] = tested on: human lymphoma cells (U937); test: Cell proliferation suppression activity on human lymphoma cells, MTT assay; assay type: cell-based; settings: applied dose 10 nM
Procedure: [The source words this procedure for another cell line and reports this cell line under the same test.] as §4

[14] = tested on: Human hepatic cancer cells HuH-7; test: Anti-tumor effect on HuH-7 cells transplanted into SCID mice; assay type: in vivo; settings: 100 mg/kg/day orally once a day for 9 days, HuH-7 tumor in SCID mice
Procedure: Pharmacological Test 2 Anti-Cancer Effect […] on Hepatic Cancer Cells HuH-7
Human hepatic cancer cells HuH-7 were transplanted into SCID mice (a group of 6 female mice). Anti-tumor effect of test compounds according to the present invention was checked. To describe more specifically, the cancer cells were cultured in advance and a cell suspension solution containing the cancer cells in a concentration of 2.5×10^7 cells/mL was prepared. Then, 0.2 mL of the cell suspension solution was injected into the right axillary region of each of the mice to transplant the cancer cells. In this manner, cancer-bearing mice were prepared. […] Next day after completion of administration, the volume of a tumor was measured. The ratio in volume of a tumor at the time of grouping relative to that measured next day after completion of administration was calculated to obtain a relative tumor volume of each group. Then, the ratio (T/C %) in relative tumor volume of […] (administrated with a test compound) was calculated and used as an index of the effect. Relative tumor volume=tumor volume measured on the next day of completion of administration/tumor volume measured at the time of grouping (T/C %)=(an average value of relative tumor volume of test compound administration group)/(an average value of relative tumor volume of a control group)×100

SMILES	IC50 [1] [nM]	IC50 [2] [nM]	IC50 [3] [nM]	IC50 [4] [nM]	IC50 [5] [nM]	IC50 [6] [nM]	IC50 [7] [nM]	IC50 [8] [nM]	IC50 [9] [nM]	IC50 [10] [nM]	IC50 [11] [nM]	Daudi (T/C %) cell proliferation suppression activity [12] [%]	U937 (T/C %) cell proliferation suppression activity [13] [%]	T/C % (relative tumor volume, test group vs control group) [14] [%]	melting point [°C]
O=C(Nc1ccc(Oc2ccc(CCC(=O)N3CCN(Cc4ccc5c(c4)OCO5)CC3)cc2)nc1)c1ccc(C(F)(F)F)cc1 [Example 1039, N-(6-{4-[3-(4-piperonylpiperazin-1-yl)-3-oxopropyl]phenoxy}pyridin-3-yl)-4-trifluoromethylbenzamide]	< 100	< 100	< 100	< 100	< 100	< 100	< 100	< 100	< 100	< 100	< 1000				
Cc1cc(N(C)CC(=O)N2CCN(Cc3ccc4c(c3)OCO4)CC2)ccc1Oc1ccc(NC(=O)c2ccc(C(F)(F)F)cc2)cn1 [Example 1503, N-[6-(4-{[2-(4-piperonylpiperazin-1-yl)-2-oxoethyl]methylamino}-2-methylphenoxy)pyridin-3-yl]-4-trifluoromethylbenzamide]	< 100	< 100	< 100	< 100	< 100	< 100	< 100	< 100	< 100	< 100	< 100	<70	<70	<50	
CCN(CC(=O)N1CCN(Cc2ccc3c(c2)OCO3)CC1)c1ccc(Oc2ccc(NS(=O)(=O)c3ccc(C(F)(F)F)cc3)cn2)c(F)c1 [Example 2712, N-[6-(4-{[2-(4-piperonylpiperazin-1-yl)-2-oxoethyl]ethylamino}-2-fluorophenoxy)pyridin-3-yl]-4-trifluoromethylbenzenesulfonamide]															177.8 to 180.1
